# Experimental data reported in US10590140B2, “Tetrahydropyrimidodiazepine and dihydropyridodiazepine compounds for treating pain and pain related conditions” (ESTEVE PHARMACEUTICALS, S.A., priority 2016, dated 2020).
# Biological target: human α2δ-1 subunit of Cav2.2 calcium channel (Homo sapiens (Human), UniProt P54289)
# Experiment: Binding assay to human α2δ-1 subunit of Cav2.2 calcium channel ([3H]-Gabapentin)
# Conditions: not given
# How it was run: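 Radioactivity on dried GF/C filters quantified by scintillation after filtration and three cold Tris-HCl (pH 7.4) washes. Incubation ran 60 min at 27° C with [3H]-gabapentin; 10 μM pregabalin gave nonspecific binding.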
# human α2δ-1 subunit of Cav2.2 calcium channel, sequence (P54289 25-1103): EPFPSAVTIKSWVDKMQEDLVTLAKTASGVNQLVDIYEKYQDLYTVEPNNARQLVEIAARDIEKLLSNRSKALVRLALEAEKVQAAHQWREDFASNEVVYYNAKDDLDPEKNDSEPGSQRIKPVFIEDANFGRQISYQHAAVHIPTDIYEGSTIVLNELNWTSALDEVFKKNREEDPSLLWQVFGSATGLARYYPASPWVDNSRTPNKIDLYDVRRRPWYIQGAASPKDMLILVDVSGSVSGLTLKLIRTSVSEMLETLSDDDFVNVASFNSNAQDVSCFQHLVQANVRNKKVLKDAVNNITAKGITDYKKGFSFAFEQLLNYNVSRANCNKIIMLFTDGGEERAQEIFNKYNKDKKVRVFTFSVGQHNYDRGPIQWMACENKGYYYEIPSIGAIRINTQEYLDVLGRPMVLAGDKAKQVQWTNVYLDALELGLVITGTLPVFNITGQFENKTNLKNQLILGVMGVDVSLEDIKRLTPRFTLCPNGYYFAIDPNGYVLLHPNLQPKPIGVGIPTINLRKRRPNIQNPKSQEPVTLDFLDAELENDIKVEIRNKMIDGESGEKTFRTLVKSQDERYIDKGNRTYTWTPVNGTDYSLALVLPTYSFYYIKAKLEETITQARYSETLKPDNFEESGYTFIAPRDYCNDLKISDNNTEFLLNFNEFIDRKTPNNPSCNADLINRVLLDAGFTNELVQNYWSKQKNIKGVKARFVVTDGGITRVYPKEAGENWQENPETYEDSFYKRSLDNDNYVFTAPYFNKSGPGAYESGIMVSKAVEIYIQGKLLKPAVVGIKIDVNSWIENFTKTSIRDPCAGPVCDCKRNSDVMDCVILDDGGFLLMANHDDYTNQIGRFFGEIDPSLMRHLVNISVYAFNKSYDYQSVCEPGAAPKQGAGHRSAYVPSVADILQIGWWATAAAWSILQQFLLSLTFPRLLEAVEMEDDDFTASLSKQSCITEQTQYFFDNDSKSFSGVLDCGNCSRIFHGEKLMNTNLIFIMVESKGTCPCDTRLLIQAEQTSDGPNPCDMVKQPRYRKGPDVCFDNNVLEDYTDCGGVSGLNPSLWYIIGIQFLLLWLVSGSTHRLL
row,SMILES,Ki
1,CCNc1ncc2c(n1)N(C)CCN(c1cccc(CO[C@@H](CCNC)c3cccs3)c1)C2=O (stereo in doubt) [Example 213],500 to 3000 nM

# Same assay, conditions: Table 2, dual compounds; [3H]-Gabapentin binding; read-out: Ki (nM) α2δ-1
row,SMILES,Ki
1,"CCNc1ncc2c(n1)N(C)CCN(c1cccc(CO[C@H](CCNC)c3cccs3)c1)C2=O [Example 212, (R)-2-(ethylamino)-9-methyl-6-(3-((3-(methylamino)-1-(thiophen-2-yl)propoxy)methyl)phenyl)-6,7,8,9-tetrahydro-5H-pyrimido[4,5-e][1,4]diazepin-5-one]",100 to 500 nM

# Same assay, conditions: binding to α2δ-1, [3H]-Gabapentin; read-out: Ki (nM) α2δ-1
row,SMILES,Ki
1,"CCNc1ncc2c(n1)N(C)CCN(c1cccc(-n3cc(CCN(C)C)nn3)c1)C2=O [Example 248, 6-(3-(4-(2-(dimethylamino)ethyl)-1H-1,2,3-triazol-1-yl)phenyl)-2-(ethylamino)-9-methyl-6,7,8,9-tetrahydro-5H-pyrimido[4,5-e][1,4]diazepin-5-one]",100 to 500 nM
2,"CCNc1ncc2c(n1)N(C)CCN(c1cccc(-n3cc(CNC(=O)OC(C)(C)C)nn3)c1)C2=O [Example 117, tert-butyl ((1-(3-(2-(ethylamino)-9-methyl-5-oxo-5,7,8,9-tetrahydro-6H-pyrimido[4,5-e][1,4]diazepin-6-yl)phenyl)-1H-1,2,3-triazol-4-yl)methyl)carbamate]",> 3000 nM
3,"CSc1ncc2c(n1)N(C)CCN(c1cccc(OC(CN(C)C(=O)OC(C)(C)C)c3ccccc3)c1)C2=O (stereo not drawn) [Example 4, tert-butyl methyl(2-(3-(9-methyl-2-(methylthio)-5-oxo-5,7,8,9-tetrahydro-6H-pyrimido[4,5-e][1,4]diazepin-6-yl)phenoxy)-2-phenylethyl) carbamate]",> 3000 nM
4,"CSc1ncc2c(n1)N(C)CCN(c1cccc(-n3cc(CCN(C)C(=O)OC(C)(C)C)nn3)c1)C2=O [Example 43, tert-butyl methyl(2-(1-(3-(9-methyl-2-(methylthio)-5-oxo-5,7,8,9-tetrahydro-6H-pyrimido[4,5-e][1,4]diazepin-6-yl)phenyl)-1H-1,2,3-triazol-4-yl)ethyl) carbamate]",> 3000 nM
5,"CSc1ncc2c(n1)N(C)CCN(c1cccc(Br)c1)C2=O [Example 35, 6-(3-bromophenyl)-9-methyl-2-(methylthio)-6,7,8,9-tetrahydro-5H-pyrimido[4,5-e][1,4]diazepin-5-one]",> 3000 nM
6,"CSc1ncc2c(n1)N(C)CCN(c1cccc(C(C)(C)CN(C)C(=O)OC(C)(C)C)c1)C2=O [Example 25, tert-butyl methyl(2-methyl-2-(3-(9-methyl-2-(methylthio)-5-oxo-5,7,8,9-tetrahydro-6H-pyrimido[4,5-e][1,4]diazepin-6-yl)phenyl)propyl) carbamate]",> 3000 nM
7,"CN(CCC(OCc1cccc(N2CCN(C)c3nc(O)ncc3C2=O)c1)c1cccs1)C(=O)OC(C)(C)C (stereo not drawn) [Example 141, tert-butyl (3-((3-(2-hydroxy-9-methyl-5-oxo-5,7,8,9-tetrahydro-6H-pyrimido[4,5-e][1,4]diazepin-6-yl)benzyl)oxy)-3-(thiophen-2-yl)propyl)(methyl)carbamate]",> 3000 nM
8,"CCNc1ncc2c(n1)N(C)CCN(c1cccc(-n3cc(CNCCOCCO)nn3)c1)C2=O [Example 290, 2-(ethylamino)-6-(3-(4-(((2-(2-hydroxyethoxy)ethyl)amino)methyl)-1H-1,2,3-triazol-1-yl)phenyl)-9-methyl-6,7,8,9-tetrahydro-5H-pyrimido[4,5-e] [1,4]diazepin-5-one]",100 to 500 nM
9,"CCNc1ncc2c(n1)N(C)CCN(c1cccc(COC(CCN(C)C(=O)OC(C)(C)C)c3cccs3)c1)C2=O (stereo not drawn) [Example 83, tert-butyl (3-((3-(2-(ethylamino)-9-methyl-5-oxo-5,7,8,9-tetrahydro-6H-pyrimido[4,5-e][1,4]diazepin-6-yl)benzyl)oxy)-3-(thiophen-2-yl)propyl)(methyl) carbamate]",> 3000 nM
10,"CCNc1ncc2c(n1)N(C)CCN(c1cccc(CO[C@H](CCNC)c3cccs3)c1)C2=O [Example 212, (R)-2-(ethylamino)-9-methyl-6-(3-((3-(methylamino)-1-(thiophen-2-yl)propoxy)methyl)phenyl)-6,7,8,9-tetrahydro-5H-pyrimido[4,5-e][1,4]diazepin-5-one]",100 to 500 nM
11,"CCNc1ncc2c(n1)N(C)CCN(c1cccc(CO[C@H](CCN(C)C(=O)OC(C)(C)C)c3ccccc3)c1)C2 [Example 65, tert-Butyl (R)-(3-((3-(2-(ethylamino)-9-methyl-5,7,8,9-tetrahydro-6H-pyrimido[4,5-e][1,4]diazepin-6-yl)benzyl)oxy)-3-phenylpropyl)(methyl)carbamate]",> 3000 nM
12,"CNCCC(OCc1cccc(N2CCN(C)c3cc(C)ncc3C2=O)c1)c1ccccc1 (stereo not drawn) [Example 306, 1,8-dimethyl-4-(3-((3-(methylamino)-1-phenylpropoxy)methyl)phenyl)-1,2,3,4-tetrahydro-5H-pyrido[4,3-e] [1,4]diazepin-5-one]",500 to 3000 nM
13,"CCNc1ncc2c(n1)N(C)CCN(c1cccc(-c3nnc(CN4CCC(c5ccccc5)(N(C)C)CC4)o3)c1)C2=O [Example 441, 6-(3-(5-((4-(dimethylamino)-4-phenylpiperidin-1-yl)methyl)-1,3,4-oxadiazol-2-yl)phenyl)-2-(ethylamino)-9-methyl-6,7,8,9-tetrahydro-5H-pyrimido[4,5-e][1,4]diazepin-5-one]",100 to 500 nM
14,"CCNc1ncc2c(n1)N(C)CCN(c1cccc(-n3cc(CN4CCC5(CC4)CN(C(C)C)C(=O)[C@@H](C)O5)nn3)c1)C2=O [Example 284, (R)-9-((1-(3-(2-(ethylamino)-9-methyl-5-oxo-5,7,8,9-tetrahydro-6H-pyrimido[4,5-e] [1,4]diazepin-6-yl)phenyl)-1H-1,2,3-triazol-4-yl)methyl)-4-isopropyl-2-methyl-1-oxa-4,9-diazaspiro[5.5] undecan-3-one]",100 to 500 nM
15,"CCNc1ncc2c(n1)N(C)CCN(c1ccccc1COC(CCNC)c1ccccc1)C2=O (stereo not drawn) [Example 337, 2-(ethylamino)-9-methyl-6-(2-((3-(methylamino)-1-phenylpropoxy)methyl)phenyl)-6,7,8,9-tetrahydro-5H-pyrimido[4,5-e][1,4]diazepin-5-one]",> 3000 nM
16,"CSc1ncc2c(n1)N(C)CCN(c1cccc(-n3cc(CN(C)C(=O)OC(C)(C)C)cn3)c1)C2=O [Example 45, tert-butyl methyl((1-(3-(9-methyl-2-(methylthio)-5-oxo-5,7,8,9-tetrahydro-6H-pyrimido[4,5-e][1,4]diazepin-6-yl)phenyl)-1H-pyrazol-4-yl)methyl) carbamate]",> 3000 nM
17,"CCNc1ncc2c(n1)N(C)CCN(c1cccc(OC(C)CN(C)C(=O)OC(C)(C)C)c1)C2=O (stereo not drawn) [Example 74, tert-butyl (2-(3-(2-(ethylamino)-9-methyl-5-oxo-5,7,8,9-tetrahydro-6H-pyrimido[4,5-e][1,4]diazepin-6-yl)phenoxy)propyl) (methyl)carbamate]",> 3000 nM
18,"Cc1cc2c(cn1)C(=O)N(c1cccc(COC(CCN(C)C(=O)OC(C)(C)C)c3ccccc3)c1)CCN2C (stereo not drawn) [Example 303, tert-butyl (3-((3-(1,8-dimethyl-5-oxo-1,2,3,5-tetrahydro-4H-pyrido[4,3-e][1,4]diazepin-4-yl)benzyl)oxy)-3-phenylpropyl)(methyl) carbamate]",> 3000 nM
19,"CCNc1ncc2c(n1)N(C)CCN(c1cccc(-c3nnc(CNC)o3)c1)C2=O [Example 187, 2-(ethylamino)-9-methyl-6-(3-(5-((methylamino)methyl)-1,3,4-oxadiazol-2-yl)phenyl)-6,7,8,9-tetrahydro-5H-pyrimido[4,5-e][1,4]diazepin-5-one]",> 3000 nM
20,"COc1ccc(N2CCN(C)c3nc(SC)ncc3C2=O)cc1 [Example 37, 6-(4-methoxyphenyl)-9-methyl-2-(methylthio)-6,7,8,9-tetrahydro-5H-pyrimido[4,5-e][1,4]diazepin-5-one]",> 3000 nM
21,"CSc1ncc2c(n1)N(C)CCN(c1cccc(-c3noc(C)n3)c1)C2=O [Example 31, 9-methyl-6-(3-(5-methyl-1,2,4-oxadiazol-3-yl)phenyl)-2-(methylthio)-6,7,8,9-tetrahydro-5H-pyrimido[4,5-e][1,4]diazepin-5-one]",> 3000 nM
22,"CNCC[C@H](Oc1ccc(CN2CCN(C)c3nc(OC)ncc3C2=O)cc1C)c1cccs1 [Example 393, (S)-2-methoxy-9-methyl-6-(3-methyl-4-(3-(methylamino)-1-(thiophen-2-yl)propoxy)benzyl)-6,7,8,9-tetrahydro-5H-pyrimido[4,5-e][1,4]diazepin-5-one]",100 to 500 nM
23,"CCNc1ncc2c(n1)N(C)CCN(c1cccc(-n3cc(CN(C)CCOCCO)nn3)c1)C2=O [Example 273, 2-(ethylamino)-6-(3-(4-(((2-(2-hydroxyethoxy)ethyl) (methyl)amino)methyl)-1H-1,2,3-triazol-1-yl)phenyl)-9-methyl-6,7,8,9-tetrahydro-5H-pyrimido[4,5-e][1,4]diazepin-5-one]",500 to 3000 nM
24,"CNCC(Oc1ccccc1N1CCN(C)c2nc(SC)ncc2C1=O)c1ccccc1 (stereo not drawn) [Example 319, 9-methyl-6-(2-(2-(methylamino)-1-phenylethoxy)phenyl)-2-(methylthio)-6,7,8,9-tetrahydro-5H-pyrimido[4,5-e][1,4]diazepin-5-one]",> 3000 nM
25,"CSc1ncc2c(n1)N(C)CCN(c1cccc(COC3(c4ccccc4)CCN(C(=O)OC(C)(C)C)CC3)c1)C2=O [Example 28, tert-butyl 4-((3-(9-methyl-2-(methylthio)-5-oxo-5,7,8,9-tetrahydro-6H-pyrimido[4,5-e][1,4]diazepin-6-yl)benzyl)oxy)-4-phenylpiperidine-1-carboxylate]",> 3000 nM
26,"CN(CCC(Oc1cccc(N2CCN(C)c3cc(Cl)ncc3C2=O)c1)c1cccs1)C(=O)OCC[Si](C)(C)C (stereo not drawn) [Example 297, 2-(trimethylsilyl)ethyl (3-(3-(8-chloro-1-methyl-5-oxo-1,2,3,5-tetrahydro-4H-pyrido[4,3-e][1,4]diazepin-4-yl)phenoxy)-3-(thiophen-2-yl)propyl)(methyl) carbamate]",> 3000 nM
27,"CSc1ncc2c(n1)N(C)CCN(Cc1cccc(OC(CN(C)C(=O)OC(C)(C)C)c3ccccc3)c1)C2=O (stereo not drawn) [Example 62, tert-Butyl methyl(2-(3-((9-methyl-2-(methylthio)-5-oxo-5,7,8,9-tetrahydro-6H-pyrimido[4,5-e][1,4]diazepin-6-yl)methyl)phenoxy)-2-phenylethyl) carbamate]",> 3000 nM

# Same assay, conditions: read-out: Ki (nM) α2δ-1; Table 2, dual compounds; [3H]-Gabapentin binding
row,SMILES,Ki
1,CCNc1ncc2c(n1)N(C)CCN(c1cccc(CO[C@@H](CCNC)c3cccs3)c1)C2=O (stereo in doubt) [Example 213],500 to 3000 nM
